From US10233161B2, “Pharmaceutical compositions and salts of a 1,2,4-oxadiazole benzoic acid” (PTC Therapeutics, Inc., priority 2014, dated 2019)

Key:
[1] = system: splice-site mutation in PAX6 (PAX6^Sey-1Neu); test: Mouse model containing a splice-site mutation in PAX6 (PAX6^Sey-1Neu); assay type: in vivo
From the text: (§1) Additional successful results were achieved after topical administration of Compound 1 directly into the eye as an ophthalmic suspension formulation (0.9% sodium chloride, 1% Tween 80, 1% powdered Compound 1, 1% carboxymethylcellulose). The lens and retinal defects, observed in the untreated eyes, reversed in the Compound 1-treated mutant mice and closely resembled wild-type mice (FIG. 36B). […] Treatment with Compound 1 caused an increase in the PAX6 protein by 90% in the corneal and retinal epithelium protein lysates compared to wild-type mice (FIG. 36C) as measured by enzyme-linked immunosorbent assay (ELISA).

[2] = system: nonsense mutation in the mouse PAX6 gene; test: Nonsense mutation mouse model of aniridia (PAX6^Sey+/−); assay type: in vivo
Protocol: Compound 1 was administered subcutaneously to PAX6 mutant and wild-type mice for 10 days (Postnatal Day 4-14) or administered topically as an ophthalmic suspension formulation (0.9% sodium chloride, 1% Tween 80, 1% powdered Compound 1, 1% carboxymethylcellulose), twice per day for 46 days (Postnatal Day 14-60). […] In the untreated mutant mouse group, progressive in-folding of the retina and abnormally small lenses was observed.
as §1
As a test for effects on visual acuity in the mice, the optokinetic tracking response was measured, which is a behavioural response mediated through the retina-brain circuitry.

[3] = Comparative equilibrium solubility study of micronized and non-micronized Compound 1; assay type: physicochemical
Protocol: Objective: The purpose of this study was to evaluate the solubility of micronized and non-micronized Compound 1. The solubility study was conducted in two representative media in pH 1 (0.1 N HCl with 0.5% sodium lauryl sulfate) and in pH 7.4 (0.1M phosphate buffered saline). The experiment further compared the initial rate of dissolution and equilibrium solubilities of micronized and non-micronized Compound 1 over a period of time.
Solubility measurement procedure comprised the steps of: 1) weighing and mixing approximately 100 mg of micronized Compound 1 and 100 mL of 0.1N HCl with 0.5% SLS into amber jar 1; 2) weighing and mixing approximately 100 mg of micronized Compound 1 and 100 mL of PBS into amber jar 2; 3) weighing and mixing approximately 100 mg of non-micronized Compound 1 and 100 mL of 0.1N HCl with 0.5% SLS into amber jar 3; 4) weighing and mixing approximately 100 mg of non-micronized Compound 1 and 100 mL of PBS into amber jar 4; 5) mixing all samples in their respective amber jars using a multi purpose rotator for 2 hours; 4) sampling at 5 minutes, 10 minutes, 30 minutes, 60 minutes, 90 minutes, 120 minutes; 5) filtering the samples and 6) analyzing the filtrates using HPLC. For each time point, 10 mL of sample was drawn using a 10 mL syringe with a needle attached filter and using a syringe-top 0.45 μm PTFE syringe filter. The first 9 mL of the samples collected were put back into the original amber jar and then remaining 1 mL was transferred to HPLC vial for analysis.

[4] = subcutaneous, 10 days (Postnatal Day 4-14), PAX6 mutant mice
[5] = topical 1% ophthalmic suspension

Question: For `O=C(O)c1cccc(-c2noc(-c3ccccc3F)n2)c1` [Compound 1, 3-[5-(2-fluoro-phenyl)-[1,2,4]oxadiazol-3-yl]-benzoic acid], which Response to therapy [1] is on record?
Answer: Its Response to therapy is “did not show a response”.

Question: What about the “Optokinetic tracking response (visual acuity)” value ([2]; spatial frequency threshold, treated mutant mice) of the same molecule?
Answer: Its value is “significant improvement in the spatial frequency threshold”.

Question: And the “Increase of the size of the lens” value [2, 4]?
Answer: The value was 70%.

Question: And the Retinal in-folding [2, 4]?
Answer: Its Retinal in-folding is “corrected the retinal in-folding”.

Question: What about the “Disease progression and malformation” value ([2]; summary for the aniridia model) of the same molecule?
Answer: Its value is “inhibited disease progression and reversed malformation in the cornea, lens and retina”.

Question: And the “Histological examination of the cornea” value [2, 5]?
Answer: Its value is “decreased corneal thickening”.

Question: And the “Retina response to light stimulation” value [2, 5]?
Answer: The value was “increased response to light stimulation”.

Question: And the “Lens and retinal defects” value ([2]; topical 1% ophthalmic suspension, twice per day, Postnatal Day 14-60)?
Answer: Its value is “reversed”.

Question: What about the “Increase in the PAX6 protein” value ([2]; topical 1% ophthalmic suspension, corneal and retinal epithelium protein lysates, ELISA) of the same molecule?
Answer: The value was 90%.

Question: What about the “Time at which solubility equilibrium was reached” value ([3]; pH 1 media) of the same molecule?
Answer: Its value is “approximately 30 minutes”.

Question: What about the “Time at which equilibrium solubility was reached” value ([3]; pH 7.4 media) of the same molecule?
Answer: The value was “approximately 2 hours”.
